Measurements published in article doi:10.1101/2020.07.01.182642v1 (biorxiv, 2020).

How the values were obtained:
Conditions in all cases: binder
PIM3 = PIM3 (Homo sapiens, UniProt Q86V86)
PLK1 = PLK1 (Homo sapiens, UniProt P53350)
TTK = molecular target: T1, TTK (Homo sapiens, UniProt P33981)
T1 sequence (P33981 1-857): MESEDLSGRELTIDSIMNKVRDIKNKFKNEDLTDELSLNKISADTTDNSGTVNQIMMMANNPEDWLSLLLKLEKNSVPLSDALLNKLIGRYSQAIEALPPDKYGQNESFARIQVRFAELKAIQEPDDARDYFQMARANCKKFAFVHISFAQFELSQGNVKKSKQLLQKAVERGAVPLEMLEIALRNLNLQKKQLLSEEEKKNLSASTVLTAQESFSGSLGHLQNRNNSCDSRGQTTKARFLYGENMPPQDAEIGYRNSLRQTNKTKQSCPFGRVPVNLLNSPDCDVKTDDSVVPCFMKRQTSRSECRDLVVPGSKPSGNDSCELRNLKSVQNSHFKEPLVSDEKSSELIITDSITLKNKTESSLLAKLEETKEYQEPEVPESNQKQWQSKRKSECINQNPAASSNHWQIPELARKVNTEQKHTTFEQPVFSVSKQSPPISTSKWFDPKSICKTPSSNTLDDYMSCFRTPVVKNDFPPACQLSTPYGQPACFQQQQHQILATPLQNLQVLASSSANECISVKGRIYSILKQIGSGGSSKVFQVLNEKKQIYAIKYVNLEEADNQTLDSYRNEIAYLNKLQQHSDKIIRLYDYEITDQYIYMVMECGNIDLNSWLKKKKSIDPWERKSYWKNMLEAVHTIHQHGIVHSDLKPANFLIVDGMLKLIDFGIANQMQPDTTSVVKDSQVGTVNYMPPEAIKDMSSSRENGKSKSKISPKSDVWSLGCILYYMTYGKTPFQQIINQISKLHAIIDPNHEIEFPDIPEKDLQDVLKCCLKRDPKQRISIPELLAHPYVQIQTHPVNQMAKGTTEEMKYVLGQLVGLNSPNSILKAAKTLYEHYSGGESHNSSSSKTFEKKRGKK

CDK2 = CDK2 (Homo sapiens, UniProt P24941)
MAP2K2 = MAP2K2 (Homo sapiens, UniProt P36507)
AAK1 = AAK1 (Homo sapiens, UniProt Q2M2I8)
FES = FES (Homo sapiens, UniProt P07332)
PHKG2 = molecular target: T2, PHKG2 (Homo sapiens, UniProt P15735)
T2 sequence (P15735 1-406): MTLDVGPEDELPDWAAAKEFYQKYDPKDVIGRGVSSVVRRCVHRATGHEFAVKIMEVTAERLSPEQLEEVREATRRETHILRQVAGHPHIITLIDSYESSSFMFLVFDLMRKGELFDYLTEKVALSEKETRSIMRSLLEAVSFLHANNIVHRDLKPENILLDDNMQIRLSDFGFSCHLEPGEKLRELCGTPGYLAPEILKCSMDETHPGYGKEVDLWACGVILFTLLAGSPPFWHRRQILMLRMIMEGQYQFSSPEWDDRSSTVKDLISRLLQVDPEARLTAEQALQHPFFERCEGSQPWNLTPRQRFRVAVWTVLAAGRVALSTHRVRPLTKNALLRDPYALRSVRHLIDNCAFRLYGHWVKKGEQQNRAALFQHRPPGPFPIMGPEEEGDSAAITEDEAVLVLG

STK38L = STK38L (Homo sapiens, UniProt Q9Y2H1)
STK26 = STK26 (Homo sapiens, UniProt Q9P289)
CSNK2A2 = CSNK2A2 (Homo sapiens, UniProt P19784)
STK17B = molecular target: T3, STK17B (Homo sapiens, UniProt O94768)
T3 sequence (O94768 1-372): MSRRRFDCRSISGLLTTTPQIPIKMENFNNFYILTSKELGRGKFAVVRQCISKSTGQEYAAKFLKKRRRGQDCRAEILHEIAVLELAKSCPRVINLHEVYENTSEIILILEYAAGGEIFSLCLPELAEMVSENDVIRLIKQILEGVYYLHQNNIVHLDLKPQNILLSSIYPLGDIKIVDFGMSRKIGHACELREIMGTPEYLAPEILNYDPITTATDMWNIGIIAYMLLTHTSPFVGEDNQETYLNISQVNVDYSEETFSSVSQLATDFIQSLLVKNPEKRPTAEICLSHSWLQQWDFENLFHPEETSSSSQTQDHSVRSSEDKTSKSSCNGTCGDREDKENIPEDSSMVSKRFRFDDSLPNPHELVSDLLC

CDK8 = CDK8 (Homo sapiens, UniProt P49336)
TNIK = TNIK (Homo sapiens, UniProt Q9UKE5)
Chain of TNIK (Q9UKE5 whole entry): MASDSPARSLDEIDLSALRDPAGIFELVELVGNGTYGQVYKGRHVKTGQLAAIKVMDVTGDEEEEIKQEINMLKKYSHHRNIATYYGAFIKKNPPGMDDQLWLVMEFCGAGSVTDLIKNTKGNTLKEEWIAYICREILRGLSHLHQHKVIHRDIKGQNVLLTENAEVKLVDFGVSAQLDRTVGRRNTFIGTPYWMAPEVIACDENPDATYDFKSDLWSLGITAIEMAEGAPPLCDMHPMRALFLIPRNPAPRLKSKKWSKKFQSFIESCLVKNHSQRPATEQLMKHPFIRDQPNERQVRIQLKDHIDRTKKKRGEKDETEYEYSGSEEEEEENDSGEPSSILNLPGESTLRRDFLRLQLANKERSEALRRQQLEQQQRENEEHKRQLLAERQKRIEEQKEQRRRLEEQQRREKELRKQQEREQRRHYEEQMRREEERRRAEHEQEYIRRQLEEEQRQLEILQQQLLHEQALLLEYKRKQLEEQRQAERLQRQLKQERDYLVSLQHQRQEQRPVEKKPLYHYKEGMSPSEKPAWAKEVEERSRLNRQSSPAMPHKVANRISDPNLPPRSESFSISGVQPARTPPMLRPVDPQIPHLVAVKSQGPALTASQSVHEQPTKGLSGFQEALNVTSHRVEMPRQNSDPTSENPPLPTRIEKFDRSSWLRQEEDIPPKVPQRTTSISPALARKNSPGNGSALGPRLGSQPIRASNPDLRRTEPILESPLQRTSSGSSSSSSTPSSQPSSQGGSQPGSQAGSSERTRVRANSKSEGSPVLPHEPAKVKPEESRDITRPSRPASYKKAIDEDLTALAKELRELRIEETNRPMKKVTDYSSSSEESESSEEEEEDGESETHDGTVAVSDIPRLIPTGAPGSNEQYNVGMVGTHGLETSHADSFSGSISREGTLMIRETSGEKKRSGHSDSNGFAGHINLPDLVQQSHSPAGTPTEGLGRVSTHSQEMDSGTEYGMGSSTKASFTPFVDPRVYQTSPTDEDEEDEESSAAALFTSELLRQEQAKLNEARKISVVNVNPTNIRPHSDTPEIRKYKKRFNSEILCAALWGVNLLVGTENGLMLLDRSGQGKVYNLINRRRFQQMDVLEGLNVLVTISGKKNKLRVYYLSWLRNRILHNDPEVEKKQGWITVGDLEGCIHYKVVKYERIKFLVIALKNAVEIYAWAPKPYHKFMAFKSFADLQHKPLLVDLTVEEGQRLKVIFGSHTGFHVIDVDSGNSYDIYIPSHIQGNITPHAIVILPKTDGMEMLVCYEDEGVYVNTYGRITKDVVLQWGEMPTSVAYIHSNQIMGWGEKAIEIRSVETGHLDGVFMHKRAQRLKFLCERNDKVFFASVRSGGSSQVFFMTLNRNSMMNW

Chain of STK26 (Q9P289 whole entry): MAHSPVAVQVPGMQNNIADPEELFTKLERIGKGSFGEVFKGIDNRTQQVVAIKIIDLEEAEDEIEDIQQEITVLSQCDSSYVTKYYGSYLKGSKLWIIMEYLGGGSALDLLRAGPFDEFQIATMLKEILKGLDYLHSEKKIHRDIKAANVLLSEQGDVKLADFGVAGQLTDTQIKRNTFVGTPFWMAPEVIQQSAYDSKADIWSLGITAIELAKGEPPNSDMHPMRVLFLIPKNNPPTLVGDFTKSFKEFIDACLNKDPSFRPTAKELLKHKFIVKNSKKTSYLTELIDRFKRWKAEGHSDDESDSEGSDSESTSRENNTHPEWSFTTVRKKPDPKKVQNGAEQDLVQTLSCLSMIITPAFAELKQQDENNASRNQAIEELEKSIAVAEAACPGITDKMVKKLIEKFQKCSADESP
Chain of PLK1 (P53350 whole entry): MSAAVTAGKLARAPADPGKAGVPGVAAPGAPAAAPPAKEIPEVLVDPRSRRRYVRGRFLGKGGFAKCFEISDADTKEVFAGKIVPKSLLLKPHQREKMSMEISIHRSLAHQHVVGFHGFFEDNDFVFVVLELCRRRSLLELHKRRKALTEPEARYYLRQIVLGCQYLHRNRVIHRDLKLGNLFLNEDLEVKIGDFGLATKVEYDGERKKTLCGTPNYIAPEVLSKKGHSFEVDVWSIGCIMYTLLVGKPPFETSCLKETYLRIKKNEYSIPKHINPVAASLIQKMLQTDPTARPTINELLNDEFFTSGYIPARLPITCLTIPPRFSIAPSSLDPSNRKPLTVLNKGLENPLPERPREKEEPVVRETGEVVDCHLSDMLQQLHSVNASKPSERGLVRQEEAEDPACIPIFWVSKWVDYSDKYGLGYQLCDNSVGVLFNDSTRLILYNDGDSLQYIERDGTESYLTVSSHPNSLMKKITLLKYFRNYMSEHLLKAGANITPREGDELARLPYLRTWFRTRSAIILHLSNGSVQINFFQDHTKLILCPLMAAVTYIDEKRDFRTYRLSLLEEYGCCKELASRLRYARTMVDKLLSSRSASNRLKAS
Chain of AAK1 (Q2M2I8 whole entry): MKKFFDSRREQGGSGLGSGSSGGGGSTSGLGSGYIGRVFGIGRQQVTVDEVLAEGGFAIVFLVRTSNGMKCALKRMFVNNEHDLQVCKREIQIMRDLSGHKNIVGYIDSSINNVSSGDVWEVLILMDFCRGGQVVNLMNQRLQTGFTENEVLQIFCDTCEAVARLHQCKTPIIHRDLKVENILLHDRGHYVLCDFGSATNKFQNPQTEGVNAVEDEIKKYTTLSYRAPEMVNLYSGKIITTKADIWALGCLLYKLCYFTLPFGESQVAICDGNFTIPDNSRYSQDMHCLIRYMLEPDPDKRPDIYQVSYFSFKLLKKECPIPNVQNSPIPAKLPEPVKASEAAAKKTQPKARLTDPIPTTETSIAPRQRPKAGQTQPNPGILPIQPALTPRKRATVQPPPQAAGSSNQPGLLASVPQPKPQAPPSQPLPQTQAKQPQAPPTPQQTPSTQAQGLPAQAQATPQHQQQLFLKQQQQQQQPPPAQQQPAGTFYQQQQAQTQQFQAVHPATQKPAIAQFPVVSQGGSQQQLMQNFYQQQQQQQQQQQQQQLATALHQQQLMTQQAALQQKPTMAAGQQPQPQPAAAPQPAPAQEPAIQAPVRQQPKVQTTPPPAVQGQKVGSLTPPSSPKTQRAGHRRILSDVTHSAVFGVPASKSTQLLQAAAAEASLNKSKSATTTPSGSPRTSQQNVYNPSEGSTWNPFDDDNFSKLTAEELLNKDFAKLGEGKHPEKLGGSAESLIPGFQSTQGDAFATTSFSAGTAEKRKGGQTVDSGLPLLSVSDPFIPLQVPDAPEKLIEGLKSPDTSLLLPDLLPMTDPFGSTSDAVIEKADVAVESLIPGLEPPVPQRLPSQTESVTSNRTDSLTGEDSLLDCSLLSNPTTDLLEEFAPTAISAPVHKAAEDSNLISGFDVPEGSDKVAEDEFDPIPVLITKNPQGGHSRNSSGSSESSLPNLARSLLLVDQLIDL
Chain of CDK8 (P49336 whole entry): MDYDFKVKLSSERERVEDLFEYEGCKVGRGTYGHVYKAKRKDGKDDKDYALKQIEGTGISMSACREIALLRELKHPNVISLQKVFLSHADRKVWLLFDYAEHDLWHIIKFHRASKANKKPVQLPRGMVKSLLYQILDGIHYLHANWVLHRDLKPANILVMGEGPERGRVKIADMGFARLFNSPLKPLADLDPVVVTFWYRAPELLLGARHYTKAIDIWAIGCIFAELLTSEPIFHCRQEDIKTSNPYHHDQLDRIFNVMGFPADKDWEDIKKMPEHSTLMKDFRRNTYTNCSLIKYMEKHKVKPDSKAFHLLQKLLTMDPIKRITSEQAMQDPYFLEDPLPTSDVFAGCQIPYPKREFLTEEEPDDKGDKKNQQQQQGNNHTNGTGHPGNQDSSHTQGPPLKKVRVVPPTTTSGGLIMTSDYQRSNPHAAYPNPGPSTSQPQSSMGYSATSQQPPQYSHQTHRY
Chain of MAP2K2 (P36507 whole entry): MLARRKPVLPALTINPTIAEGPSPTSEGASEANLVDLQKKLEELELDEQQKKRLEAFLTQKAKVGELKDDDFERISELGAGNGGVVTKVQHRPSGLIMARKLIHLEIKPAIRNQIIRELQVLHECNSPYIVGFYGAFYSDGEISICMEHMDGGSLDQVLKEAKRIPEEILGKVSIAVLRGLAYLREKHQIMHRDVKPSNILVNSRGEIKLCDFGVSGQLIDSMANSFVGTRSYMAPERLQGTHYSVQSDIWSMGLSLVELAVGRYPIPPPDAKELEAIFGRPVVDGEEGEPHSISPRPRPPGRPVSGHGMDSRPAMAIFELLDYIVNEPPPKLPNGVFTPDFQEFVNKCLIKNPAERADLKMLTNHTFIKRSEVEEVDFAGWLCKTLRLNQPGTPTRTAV
Chain of STK38L (Q9Y2H1 whole entry): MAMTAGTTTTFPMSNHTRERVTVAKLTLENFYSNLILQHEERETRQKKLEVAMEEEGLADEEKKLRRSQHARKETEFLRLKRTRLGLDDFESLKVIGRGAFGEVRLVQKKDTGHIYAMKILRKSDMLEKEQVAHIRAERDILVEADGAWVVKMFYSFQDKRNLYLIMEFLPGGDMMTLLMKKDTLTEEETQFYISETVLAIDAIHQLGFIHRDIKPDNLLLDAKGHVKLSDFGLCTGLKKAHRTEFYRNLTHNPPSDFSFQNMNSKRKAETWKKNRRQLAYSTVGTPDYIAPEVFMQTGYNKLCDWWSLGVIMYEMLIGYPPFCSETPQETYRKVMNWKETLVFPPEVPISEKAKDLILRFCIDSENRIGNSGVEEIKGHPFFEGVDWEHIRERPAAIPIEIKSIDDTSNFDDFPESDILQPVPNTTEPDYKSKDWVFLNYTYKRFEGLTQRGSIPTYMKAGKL
Chain of CSNK2A2 (P19784 whole entry): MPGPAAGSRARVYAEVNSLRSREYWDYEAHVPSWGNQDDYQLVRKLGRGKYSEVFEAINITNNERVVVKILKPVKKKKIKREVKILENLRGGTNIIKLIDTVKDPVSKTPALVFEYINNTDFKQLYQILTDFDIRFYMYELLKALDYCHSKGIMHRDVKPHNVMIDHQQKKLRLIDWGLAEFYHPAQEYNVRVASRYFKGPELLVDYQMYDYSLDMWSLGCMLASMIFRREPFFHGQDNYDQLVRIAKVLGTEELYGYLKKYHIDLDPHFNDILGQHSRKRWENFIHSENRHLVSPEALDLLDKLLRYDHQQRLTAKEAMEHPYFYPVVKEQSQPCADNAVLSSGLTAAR

CCN1/C(=C/C(C)=O)Sc2ccc(OC)cc21 [compound 2, TG003]
ΔTm inhibitor 2 (PIM3): 4.9 °C | ΔTm inhibitor 2 (PLK1): 0.3 °C | ΔTm inhibitor 2 (TTK): 0.5 °C | ΔTm inhibitor 2 (CDK2): -0.1 °C | ΔTm inhibitor 2 (MAP2K2): 0.5 °C | ΔTm inhibitor 2 (AAK1): 1.5 °C | ΔTm inhibitor 2 (FES): -0.1 °C | ΔTm inhibitor 2 (PHKG2): 0.2 °C | ΔTm inhibitor 2 (STK38L): 0.3 °C | ΔTm inhibitor 2 (STK26): -0.3 °C | ΔTm inhibitor 2 (CSNK2A2): 2.6 °C | ΔTm inhibitor 2 (STK17B): 1.0 °C | ΔTm inhibitor 2 (CDK8): 0.1 °C | ΔTm inhibitor 2 (TNIK): 0.1 °C

CC(=O)c1cccc(-c2cnc3ccc(NCC4CC4)nn23)c1 [compound 1, K00135]
ΔTm inhibitor 1 (PIM3): 6.8 °C | ΔTm inhibitor 1 (PLK1): 2.0 °C | ΔTm inhibitor 1 (TTK): 2.7 °C | ΔTm inhibitor 1 (CDK2): 1.5 °C | ΔTm inhibitor 1 (MAP2K2): 2 °C | ΔTm inhibitor 1 (AAK1): 6.9 °C | ΔTm inhibitor 1 (FES): 0.6 °C | ΔTm inhibitor 1 (PHKG2): 1.7 °C | ΔTm inhibitor 1 (STK38L): 0.4 °C | ΔTm inhibitor 1 (STK26): 0.3 °C | ΔTm inhibitor 1 (CSNK2A2): 3.3 °C | ΔTm inhibitor 1 (STK17B): 4.2 °C | ΔTm inhibitor 1 (CDK8): 2.7 °C | ΔTm inhibitor 1 (TNIK): 1.2 °C

Nc1nccc(-c2ccc3noc(-c4ccc(Cl)cc4)c3c2)n1 [compound 4, K00972]
ΔTm inhibitor 4 (PIM3): 5.4 °C | ΔTm inhibitor 4 (PLK1): 0.4 °C | ΔTm inhibitor 4 (TTK): 1.7 °C | ΔTm inhibitor 4 (CDK2): 0.3 °C | ΔTm inhibitor 4 (MAP2K2): 0.1 °C | ΔTm inhibitor 4 (AAK1): 3.4 °C | ΔTm inhibitor 4 (FES): 0.3 °C | ΔTm inhibitor 4 (PHKG2): 1.7 °C | ΔTm inhibitor 4 (STK38L): 0.9 °C | ΔTm inhibitor 4 (STK26): 0.1 °C | ΔTm inhibitor 4 (CSNK2A2): 0.9 °C | ΔTm inhibitor 4 (STK17B): 6.9 °C | ΔTm inhibitor 4 (CDK8): 1.9 °C | ΔTm inhibitor 4 (TNIK): 1.2 °C
